Laboratory results published in US20260184766A1 (priority 2022, published 2026).

Columns and labels:
biotinylated RBD = biotinylated RBD (Severe acute respiratory syndrome coronavirus 2, UniProt P0DTC2)
[1] = target: biotinylated RBD (Wuhan-Hu-1) (Severe acute respiratory syndrome coronavirus 2, UniProt P0DTC2)
[2] = tested on: pseudotyped virus carrying SARS-CoV-2 (Wuhan-Hu-1) wild-type (WT) spike protein; format: cell-based; conditions: for EC50: read-out: Virus Neutralization Pseudovirus (nM) Wild-type
[3] = tested on: pseudotyped virus carrying S protein of a SARS-CoV-2 delta lineage virus; format: cell-based; conditions: read-out: Virus Neutralization Pseudovirus (nM) Delta

| Sequence | binding of coated CDR3-knob to biotinylated RBD, in words [1] | EC50 [2] | EC50 [3] | also measured |
| --- | --- | --- | --- | --- |
| EGDKTCPDGYEHTCGCIGGCGCKRSACIGALCCQASLGGWLSDGETYTYEF [G3 Knob] | showed binding | – | – | binding to RBD after heat and SDS treatment (biotinylated RBD): maintained binding; RBD binding relative to reference anti-spike protein antibody CR3022 [1]: increased; neutralization potency of CDR3-knob only antibody, in words [2]: subnanomolar potency |
| GGSCPDGYEHTCGCIGGCGCKRSACIGALCCQASLGGWLSD [G3 NTRUNC5] | did not correlate with any reduction in binding activity | – | – | – |
| GGSEGDKTCPDGYEHTCGCIGGCGCKRSACIGALCCQASLGGW [G3 TRUNC3B] | reduced binding | – | – | – |
| GGSEGDKTCPDGYEHTCGCIGGCGCKRSACIGALCCQASLGGWL [G3 TRUNC3A] | reduced binding | – | – | – |
| HWTCPDGYEHTCGCIGGCGCKRSACIGALCCQASLGGWLSDSF [2G3 knob HWSF] | – | 0.15 ± 0.03 nM | 21.2 ± 22.9 nM | – |
| ISTCPDGYEHTCGCIGGCGCKRSACIGALCCQASLGGWLSDTV [2G3 knob ISTV] | – | 0.12 ± 0.03 nM | 56 ± 7.02 nM | – |
| TCPDGYEHTCGCIGGCGCKRSACIGALCCQASLGGWLSD [2G3 Knob] | – | 1.3 ± 0.3 nM | 71.3 ± 37.2 nM | – |
